Experimental data published in patent publication US20220363623A1, “IMAGING AND THERAPEUTIC COMPOSITIONS” (priority 2019, published 2022).

Tests used:
DU145 cells = test: Tracer uptake in DU145 cells, a PSMA negative cell line; format: cell-based; conditions: 60 min, in words
Procedure: Cell binding and internalization studies. LNCap cells (150,000/well) were plated in RPMI 1640 medium containing 10% FBS into wells of a 24 well plate pre-coated with 0.05% poly-L-lysine and incubated overnight at 37° C. and 5% CO2. The following day cells were washed twice with PBS and incubated for 1 hour at 37° C. in 1 mL per well internalisation buffer (MEM, 1% FBS). The buffer was then replaced with 1 ml per well of a warmed solution containing 0.5 μCi ^89Zr-DFOsq-PSMA tracers in internalisation buffer. Cells were incubated in triplicate for 5, 15, 30 or 60 min at 37° C. and 5% CO2. […] Total protein content was determined in this fraction using a BCA protein assay kit (Pierce). A Perkin Elmer 2480 Wizard automatic gamma counter was then used to measure Zr-89 radioactivity in unbound, surface bound and internalised fractions. Surface bound and internalised fractions were expressed as percentage of total added radioactivity per mg of protein. Non-specific membrane binding and internalisation was determined by incubating cells with the ^89Zr-DFOSq-PSMA tracers in the presence of excess (10 μM) PMPA. ^89Zr-DFOSq-PSMA tracers uptake at 60 min was also determined in DU145 cells (seeded at 125,000 cells/well), a PSMA negative cell line. The raw data was analysed using GraphPad Prism 7.

in vivo = test: in vivo; parameters: species or system mice; conditions: male, mouse, iv, total radioactivity
Procedure: PET-CT imaging and Biodistribution. Male Balb/c nude mice (age 8.5 weeks) or Male NSG mice (age 12 weeks) were inoculated subcutaneously on the right flank with 6×10^6 LNCap cells in PBS:Matrigel (1:1). Mice were weighed and tumours measured twice weekly using electronic callipers. Tumour volume (mm^3) was calculated as length×width×height×π/6. Mice were assigned for imaging and biodistribution studies (tumour volumes: 85-450 mm3). ^89Zr-DFOSq-PSMA tracers were then administered intravenously by tail vein injection to 6 mice. At 1, 2, 4 and 18 hr post injection three mice were anaesthetised using isoflurane and placed on the imaging bed of a G8 PET/CT scanner (Perkin Elmer). A CT scan was performed and followed immediately by a 10 min static PET scan. PET images were reconstructed using the maximal likelihood and expectation maximization (ML-EM) algorithm. PET Images were analysed using VivoQuant (Invicro) and Tumour SUVmax or Tumour SUVmax/background average (TBR) determined. After imaging at 18 hr mice were euthanised and selected tissues were excised, weighed and counted using a Capintec (Captus 4000e) gamma counter. A separate cohort of 3 mice was harvested at 1 hr post injection for biodistribution analysis as above. The data was analysed using GraphPad Prism 7 and differences between tracers analysed using a t-test.
^89Zr Labelled tracers: The ^89Zr radiolabelled PSMA tracers were injected intravenously via tail vein to LNCaP (human PSMA expressing prostate cancer cell line) tumour bearing mice. At 1, 2, 4 and 18 h post-injection the mice were anaesthetised with isoflurane and imaged over 10 min. The representative PET images of mice injected with ^89Zr radiolabelled PSMA tracers at 1 and 18 hr are shown in FIG. 1 and quantitation of the Tumour SUVmax for each tracer is shown in FIG. 2a. […] There was a trend for higher tumour SUVmax for (4) tracer compared to all other tracers at all time points. […] A comparison of tumour uptake values is shown in FIG. 2b and the tissue biodistribution data for the tracers at 1 and 18 hr is summarised in FIG. 3.
^68Ga Labelled tracers: Representative PET images of mice injected with ^68Ga(1) and ^68Ga(4) are shown in FIG. 4 and quantitation of the tumour SUVmax is shown in FIG. 5a. […] Tumour uptake of ^68Ga(4) was 1.6 and 1.8 fold higher than ^68Ga(1) at 1 and 2 hr p.i., respectively. This is consistent with the biodistribution results where tumour % ID/g for ^68Ga(4) was higher than ^68Ga(1) at 1 hr (10.8±1.3 vs 6.5±0.4) and at 2.5 hr (8.6±1.0 vs 4.1±0.5) p.i. […] (6.5±0.4% ID/g at 1 hr vs 4.1±0.5% ID/g at 2.5 hr). In contrast, there was no significant change in ^68Ga(4) tumour retention at 1 and 2.5 p.i. (10.8±1.3% ID/g vs […], FIG. 5b).

LNCap cells = test: Cell binding and internalization studies in LNCap cells; format: cell-based, human
Procedure: Cell binding and internalization studies. LNCap cells (150,000/well) were plated in RPMI 1640 medium containing 10% FBS into wells of a 24 well plate pre-coated with 0.05% poly-L-lysine and incubated overnight at 37° C. and 5% CO2. The following day cells were washed twice with PBS and incubated for 1 hour at 37° C. in 1 mL per well internalisation buffer (MEM, 1% FBS). The buffer was then replaced with 1 ml per well of a warmed solution containing 0.5 μCi ^89Zr-DFOsq-PSMA tracers in internalisation buffer. Cells were incubated in triplicate for 5, 15, 30 or 60 min at 37° C. and 5% CO2. At each time point, cells were washed twice with ice-cold PBS and the washes collected for counting (unbound fraction). Cells were then incubated twice for 10 min in saline containing 10 μM PMPA and each wash collected for counting (surface bound fraction). The cells were then solubilised in 1 M NaOH (internalised fraction). Total protein content was determined in this fraction using a BCA protein assay kit (Pierce). A Perkin Elmer 2480 Wizard automatic gamma counter was then used to measure Zr-89 radioactivity in unbound, surface bound and internalised fractions. Surface bound and internalised fractions were expressed as percentage of total added radioactivity per mg of protein. Non-specific membrane binding and internalisation was determined by incubating cells with the ^89Zr-DFOSq-PSMA tracers in the presence of excess (10 μM) PMPA. ^89Zr-DFOSq-PSMA tracers uptake at 60 min was also determined in DU145 cells (seeded at 125,000 cells/well), a PSMA negative cell line. The raw data was analysed using GraphPad Prism 7.

In the case of CC(=O)N(O)CCCCCNC(=O)CCC(=O)N(O)CCCCCNC(=O)CCC(=O)N(O)CCCCCNc1c(NCc2ccc(C(=O)NCCCCC(NC(=O)NC(CCC(=O)O)C(=O)O)C(=O)O)cc2)c(=O)c1=O (stereo not drawn) [(1), DFOSq-PhPSMA ligand], the “Binding in DU145, PSMA negative cell line” value (DU145 cells) is reported as “Minimal binding”, the tissue uptake at 1 h (in vivo; Tumour Uptake % ID/g 1 h pi) is reported as 5.4 %ID/g and the tissue uptake at 18 h (in vivo; Tumour Uptake % ID/g 18 h pi) is reported as 2.2 %ID/g. The “Cell Uptake % AR/mg protein (60 min) internalized” value (LNCap cells; 89Zr tracers, 60 min, 37° C.) was 7 % AR/mg protein, the “Internalised activity in the presence of excess PMPA” value (LNCap cells; excess (10 μM) PMPA) was “up to 5 % AR/mg protein” and the Surface binding (LNCap cells; presence and absence of excess PMPA, all timepoints) was 2 % AR/mg protein.
